According to patent US10669272B2, “Substituted naphthyridinone compounds useful as T cell activators” (BRISTOL-MYERS SQUIBB COMPANY, priority 2018, dated 2020):
Like-named read-outs stand apart in the source and are kept apart here.

Assays:
human DGKα = biological target: T1, human DGKα (Homo sapiens, UniProt P23743); assay: DGKα LIPGLO assay (extruded liposome substrate), in vitro DGK inhibition; assay type: biochemical; details: liposome (LIPGLO) assay; read-out: DGKa LIPGLO IC50
T1 construct: TVMV protease cleavage site (C); Hexa-His (C); made in house; host or cells: Sf9 insect cells (baculovirus, Bac-to-Bac)

human DGKζ = biological target: T2, human DGKζ (Homo sapiens, UniProt Q13574); assay: DGKζ LIPGLO assay (extruded liposome substrate), in vitro DGK inhibition; assay type: biochemical; details: liposome (LIPGLO) assay; read-out: DGKz LIPGLO IC50
T2 construct: TVMV protease cleavage site (C); Hexa-His (C); made in house; host or cells: Sf9 insect cells (baculovirus, Bac-to-Bac)

naïve human CD8 T cells = assay: Human CD8 T cells IFN-γ assay; assay type: cell-based; details: normalized to 3 μM reference compound with anti-CD3 plus anti-CD28 as 100% activation, read-out: HuCD8 INFG Normalized EC50;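 also: Naïve human CD8 T cells stimulated with plate-bound anti-CD3 and soluble anti-CD28, IFN-γ in supernatant quantified by AlphaLISA and converted to pg/mL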
Human venous whole blood = assay: Human whole blood IFN-γ assay; assay type: cell-based; details: human whole blood, normalized to 3 μM reference compound with anti-CD3 plus anti-CD28 as 100% activation, read-out: INFg Whole Blood Normalized Agonist EC50;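 also: blood from healthy donors exposed to compound for 1 h before stimulation with anti-CD3 and anti-CD28 at 1 µg/mL each, IFN-γ quantified in supernatant by AlphaLISA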

T1 sequence (P23743 with tags, fused parts or gaps): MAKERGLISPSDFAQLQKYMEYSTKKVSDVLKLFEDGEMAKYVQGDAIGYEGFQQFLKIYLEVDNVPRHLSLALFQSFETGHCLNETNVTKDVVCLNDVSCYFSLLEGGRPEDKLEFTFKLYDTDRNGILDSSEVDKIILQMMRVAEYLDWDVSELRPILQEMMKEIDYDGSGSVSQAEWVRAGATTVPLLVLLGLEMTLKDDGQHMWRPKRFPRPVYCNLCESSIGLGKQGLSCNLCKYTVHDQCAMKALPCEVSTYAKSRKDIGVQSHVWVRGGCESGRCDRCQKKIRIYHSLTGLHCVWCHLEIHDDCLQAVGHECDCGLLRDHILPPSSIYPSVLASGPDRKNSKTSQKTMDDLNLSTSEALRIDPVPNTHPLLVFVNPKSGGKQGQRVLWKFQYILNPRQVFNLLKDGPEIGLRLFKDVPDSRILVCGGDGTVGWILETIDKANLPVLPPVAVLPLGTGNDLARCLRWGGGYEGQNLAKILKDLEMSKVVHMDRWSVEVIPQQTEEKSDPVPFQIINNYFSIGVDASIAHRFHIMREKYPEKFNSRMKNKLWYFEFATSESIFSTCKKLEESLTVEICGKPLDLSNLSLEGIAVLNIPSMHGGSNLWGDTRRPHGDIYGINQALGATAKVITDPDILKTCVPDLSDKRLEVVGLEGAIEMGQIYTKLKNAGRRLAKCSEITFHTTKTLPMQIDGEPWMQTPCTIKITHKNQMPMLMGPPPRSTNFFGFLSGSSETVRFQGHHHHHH
T2 sequence (Q13574 with tags, fused parts or gaps isoform Q13574-4): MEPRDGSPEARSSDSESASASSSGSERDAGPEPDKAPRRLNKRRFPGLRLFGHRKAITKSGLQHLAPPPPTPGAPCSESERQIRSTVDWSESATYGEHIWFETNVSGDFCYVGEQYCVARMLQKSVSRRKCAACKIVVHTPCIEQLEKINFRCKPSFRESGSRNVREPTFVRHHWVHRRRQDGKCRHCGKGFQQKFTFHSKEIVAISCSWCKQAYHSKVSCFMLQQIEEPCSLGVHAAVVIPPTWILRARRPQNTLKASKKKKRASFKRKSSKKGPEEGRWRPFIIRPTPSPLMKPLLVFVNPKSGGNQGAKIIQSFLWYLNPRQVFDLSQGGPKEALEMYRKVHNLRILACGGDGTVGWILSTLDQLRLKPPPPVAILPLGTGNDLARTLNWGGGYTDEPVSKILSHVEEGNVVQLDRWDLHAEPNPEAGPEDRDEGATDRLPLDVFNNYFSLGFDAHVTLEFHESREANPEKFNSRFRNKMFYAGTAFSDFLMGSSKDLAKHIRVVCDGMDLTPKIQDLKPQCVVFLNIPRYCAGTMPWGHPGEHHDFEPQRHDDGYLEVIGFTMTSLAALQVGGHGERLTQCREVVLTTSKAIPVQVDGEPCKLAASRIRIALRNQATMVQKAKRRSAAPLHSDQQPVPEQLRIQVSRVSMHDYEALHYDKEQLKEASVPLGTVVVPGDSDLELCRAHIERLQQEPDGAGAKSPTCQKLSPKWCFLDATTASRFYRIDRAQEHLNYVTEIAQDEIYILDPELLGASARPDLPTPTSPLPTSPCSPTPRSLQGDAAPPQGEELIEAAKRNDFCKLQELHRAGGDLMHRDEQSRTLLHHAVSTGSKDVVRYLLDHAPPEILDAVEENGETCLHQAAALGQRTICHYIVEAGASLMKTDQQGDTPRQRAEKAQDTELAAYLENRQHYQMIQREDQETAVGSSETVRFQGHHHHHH

| IC50 (human DGKα) | IC50 (human DGKζ) | SMILES | EC50 (naïve human CD8 T cells) | EC50 (Human venous whole blood) | EC50 (naïve human CD8 T cells; Homo sapiens, T-cell, 20 h) | EC50 (Human venous whole blood; Homo sapiens, 24 h) |
| --- | --- | --- | --- | --- | --- | --- |
| 140000 nM | 4800 nM | C[C@@H]1CN(c2cc(=O)n(C)c3ccc(C#N)nc23)[C@@H](C)CN1C(c1ccc(F)cc1)c1cccc2c1OC(F)(F)O2 (stereo partly shown) [Example 669] | 96 nM | 860 nM |  |  |
| 1700 nM | 1500 nM | CC[C@@H]1CN(c2cc(=O)n(C)c3ccc(C#N)nc23)[C@@H](C)CN1C(c1ccc(Cl)cc1)c1ccc(Cl)cc1 [Example 1099] |  |  | 2.5 nM | 220 nM |
| 720 nM | 2000 nM | C[C@@H]1CN(c2cc(=O)n(C)c3ccc(C#N)nc23)[C@@H](C)CN1C(c1ccc(F)cc1)c1ccc(C(F)F)cc1 (single isomer, unassigned) [Example 666] | 5.6 nM |  |  | 920 nM |
| 7700 nM | 290 nM | C[C@@H]1CN(c2cc(=O)n(C)c3ccc(C#N)nc23)[C@@H](C)CN1C(c1ccc(Cl)cc1)c1cccc2c1OCCO2 (stereo partly drawn) [Example 447, 8-((2S,5R)-4-((4-chlorophenyl)(2,3-dihydrobenzo[b][1,4]dioxin-5-yl)methyl)-2,5-dimethylpiperazin-1-yl)-5-methyl-6-oxo-5,6-dihydro-1,5-naphthyridine-2-carbonitrile] |  |  | 50 nM | 600 nM |
| 250 nM | 520 nM | C[C@@H]1CN(c2cc(=O)n(C)c3ccc(C#N)nc23)[C@@H](C)CN1C(c1ccc(F)cc1)c1cccc(F)n1 (single isomer, unassigned) [Example 471] |  |  | 200 nM | 570 nM |
| 250 nM | 270 nM | CC[C@@H]1CN(c2cc(=O)n(C)c3ccc(C#N)nc23)[C@@H](C)CN1C(c1ccc(F)cc1)c1ccc(C#N)cc1 (single isomer, unassigned) [Example 1103] | 21 nM | 260 nM |  |  |

Continued, compound first:

| SMILES | IC50 (human DGKα) | IC50 (human DGKζ) | EC50 (naïve human CD8 T cells) | EC50 (Human venous whole blood) | EC50 (naïve human CD8 T cells; Homo sapiens, T-cell, 20 h) | EC50 (Human venous whole blood; Homo sapiens, 24 h) |
| --- | --- | --- | --- | --- | --- | --- |
| C[C@@H]1CN(c2cc(=O)n(C)c3ccc(C#N)nc23)[C@@H](C)CN1Cc1cc(F)ccc1F [Example 262, 8-[(2S,5R)-4-[(2,5-difluorophenyl)methyl]-2,5-dimethylpiperazin-1-yl]-5-methyl-6-oxo-5,6-dihydro-1,5-naphthyridine-2-carbonitrile] | 640 nM | 2500 nM |  |  | 310 nM | 7100 nM |
| Cc1ccc(C(c2ccc(Cl)cc2)N2C[C@H](C)N(c3cc(=O)n(C)c4ccc(C#N)nc34)C[C@H]2C)nc1 (single isomer, unassigned) [Example 213] | 360 nM | 790 nM | 1100 nM |  |  | 460 nM |
| C[C@@H]1CN(c2cc(=O)n(C)c3ccc(C#N)nc23)[C@@H](C)CN1C(c1ccc(F)cc1)c1c(F)cccc1F (single isomer, unassigned) [Example 275] | 1900 nM | 3600 nM | 230 nM | 3700 nM |  |  |
| C[C@@H]1CN(c2cc(=O)n(C)c3ccc(C#N)nc23)[C@@H](C)CN1C(c1ccc(OC(F)(F)F)cc1)c1cccc(F)n1 (single isomer, unassigned) [Example 368] | 1700 nM | 2500 nM | 10 nM | 460 nM |  |  |
| COc1ncccc1C(c1ccc(F)cc1)N1C[C@H](C)N(c2cc(=O)n(C)c3ccc(C#N)nc23)C[C@H]1C (single isomer, unassigned) [Example 209] | 15000 nM | 320 nM |  |  | 170 nM | 1500 nM |
| C[C@@H]1CN(c2cc(=O)n(C)c3ccc(C#N)nc23)[C@@H](C)CN1C(c1ccc(F)c(F)c1)c1ccccn1 (single isomer, unassigned) [Example 375] | 270 nM | 2700 nM |  |  | 49 nM | 330 nM |
| Cc1cccc(C(c2ccc(F)cc2)N2C[C@H](C)N(c3cc(=O)n(C)c4ccc(C#N)nc34)C[C@H]2C)c1 (single isomer, unassigned) [Example 223] | 280 nM | 34 nM |  |  | 29 nM | 870 nM |
